Results on 17 compounds are retold here after ChEMBL document CHEMBL4219256, “Design, Synthesis, and Biological Evaluation of 4-Quinoline Carboxylic Acids as Inhibitors of Dihydroorotate Dehydrogenase” (J Med Chem, 2018).

A word on the IC50: it is the concentration at which inhibition is half-maximal. A high value points to weaker potency in that assay.

For one assay, the system named is MIA PaCa-2. Kind of assay: Antiproliferative activity against human MIAPaCa2 cells after 72 hrs by MTT assay. It counts as functional, cell-based. Background: Formazan colour is commonly taken as a measure of viable cells.
The next assay has as its system HL-60. The assay is described as follows: Antiproliferative activity against human HL60 cells after 72 hrs by MTT assay.
A further assay concerns HCT-116. Kind of assay: Antiproliferative activity against human HCT116 cells over-expressing DHODH after 72 hrs by MTT assay. It is filed as functional, cell-based.
In assay [1] the target is Dihydroorotate dehydrogenase (quinone), mitochondrial (Homo sapiens, UniProt Q02127).
Dihydroorotate dehydrogenase (quinone), mitochondrial, sequence (Q02127 whole entry): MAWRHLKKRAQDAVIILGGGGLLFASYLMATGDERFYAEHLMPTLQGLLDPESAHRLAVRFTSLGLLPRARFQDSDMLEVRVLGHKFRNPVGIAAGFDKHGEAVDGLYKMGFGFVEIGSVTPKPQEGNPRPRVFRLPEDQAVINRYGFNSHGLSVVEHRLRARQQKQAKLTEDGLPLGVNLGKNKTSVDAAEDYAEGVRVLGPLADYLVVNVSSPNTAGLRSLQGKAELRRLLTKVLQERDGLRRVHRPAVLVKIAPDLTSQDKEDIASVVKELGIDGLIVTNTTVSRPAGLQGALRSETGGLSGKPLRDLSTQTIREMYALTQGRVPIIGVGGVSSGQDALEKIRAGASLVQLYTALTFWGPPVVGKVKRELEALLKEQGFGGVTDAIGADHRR
Description: Inhibition of DHODH (unknown origin) expressed in Escherichia coli Rosetta2(DE3) assessed as reduction of DCIP using dihydroorotate as substrate preincubated for 30 mins followed by substrate addition in presence of CoQ10 measured after 1 hr

In the case of `O=C(O)c1cc(-c2ccc(-c3cccnc3Cl)cc2)nc2ccccc12`, the IC50 with MIA PaCa-2 worked out at 7.13 µM; with HL-60, 7.12 µM.
For `Cc1ncccc1-c1ccc(-c2cc(C(=O)O)c3ccccc3n2)cc1`, in that order: 18.2 µM and 11.6 µM.
As to `O=C(O)c1cc(-c2ccc(-c3ccccc3)cc2)nc2ccccc12`, the values for the IC50 with MIA PaCa-2, with HCT-116 and with HL-60 were 2.16 µM, 0.344 µM and 3.51 µM, respectively.
Consider `O=C(O)c1cc(-c2ccccc2)nc2ccccc12` [CINCHOPHEN], for which the half-inhibitory concentration (IC50) is > 100 µM with MIA PaCa-2, > 100 µM in the assay on HCT-116 and 144000 nM in assay [1].
With `Cc1ccc(-c2ccc(-c3nc4ccc(F)cc4c(C(=O)O)c3C)cc2)c(Cl)n1`, the half-inhibitory concentration (IC50) in the assay on MIA PaCa-2 turned out to be 6.57 µM; in the assay on HCT-116 it was 1.98 µM; with HL-60 it was 4.81 µM.
With `O=C(O)c1cc(-c2ccc(-c3ncccn3)cc2)nc2ccccc12`, the half-maximal inhibitory concentration (IC50) was > 50 µM in the assay on MIA PaCa-2, > 50 µM in the assay on HCT-116 and > 200000 nM in assay [1].
As to `Cc1c(-c2ccc(-c3ccccc3)cc2)nc2ccncc2c1C(=O)O`, the results for the IC50 (in the assay with MIA PaCa-2; with HCT-116; in assay [1]) were 28.1 µM, 26.7 µM and 2790 nM, respectively.
Turning to `Cc1c(-c2ccc(-c3cccnc3Cl)cc2)nc2cnccc2c1C(=O)O`, the 50% inhibitory concentration (IC50) is > 100 µM in the assay with MIA PaCa-2, > 100 µM in the assay on HCT-116 and 259 nM in assay [1].
Turning to `Cc1c(-c2ccc(-c3cccnc3Cl)cc2)nc2ccccc2c1C(=O)O`, the values for the IC50 in the assay on MIA PaCa-2, in the assay on HCT-116 and in the assay on HL-60 were 8.64 µM, 6.44 µM and 15.3 µM, respectively.
With `COC(=O)c1cc(-c2ccc(-c3ccccc3)cc2)nc2ccccc12`, the IC50 in the assay with MIA PaCa-2 is 11.5 µM; with HCT-116 it was 6.9 µM; in assay [1] it was > 200000 nM.
On to `Cc1c(-c2ccc(-c3ccccc3F)cc2)nc2cnc(C(F)(F)F)cc2c1C(=O)O`, for which the 50% inhibitory concentration (IC50) was found to be 0.454 µM in the assay on MIA PaCa-2, 0.333 µM in the assay on HCT-116, 0.401 µM with HL-60 and 11.8 nM in assay [1].
For `Cc1c(-c2ccc(-c3ccccc3)cc2)nc2cnc(C(F)(F)F)cc2c1C(=O)O`, in that order: 2.18 µM, 0.88 µM, 2.67 µM and 21.2 nM.
`Cc1ccc(-c2ccc(-c3nc4cnccc4c(C(=O)O)c3C)cc2)c(Cl)n1`: the figures for the concentration for half-maximal inhibition (IC50) (with MIA PaCa-2; with HCT-116; in assay [1]) were > 100 µM, > 100 µM and 5260 nM, respectively.
Regarding `COC(=O)c1cc(-c2ccc(C3CCCCC3)cc2)nc2ccccc12`, the IC50 in the assay with MIA PaCa-2 was 37.1 µM; with HCT-116 it was 42.6 µM; in assay [1], > 200000 nM.
Consider `O=C(O)c1cc(-c2ccc(-c3cncnc3)cc2)nc2ccccc12`, for which the IC50 is > 50 µM with MIA PaCa-2, > 50 µM with HCT-116 and > 200000 nM in assay [1].
In the case of `Cc1c(-c2ccc(-c3ccccc3)cc2)nc2ncccc2c1C(=O)O`, the concentration for half-maximal inhibition (IC50) in the assay on MIA PaCa-2 was > 100 µM; with HCT-116 it was > 100 µM; in assay [1], 1220 nM.
As for `O=C(O)c1cc(-c2ccc(N3CCOCC3)cc2)nc2ccccc12`, the IC50 in the assay with MIA PaCa-2 is > 100 µM; in the assay with HCT-116 it was > 100 µM; in assay [1], > 200000 nM.
